Data as given in PMC6920806, “Synthesis of β-D-galactopyranoside-Presenting Glycoclusters, Investigation of Their Interactions with Pseudomonas aeruginosa Lectin A (PA-IL) and Evaluation of Their Anti-Adhesion Potential” (Biomolecules, 2019).
Values after ≈ are worked out from the molar mass of the structure shown. “Also recorded” adds a separate entry of the source.

What was measured:
[1] = target: T1, lectin PA-IL (Pseudomonas aeruginosa, UniProt Q05097); assay: Isothermal titration microcalorimetry (ITC); type: binding; details: for ΔH / Ka / −T ΔS / ΔG / n (stoichiometry): ITC, 25 °C; for Ka: association constant; for −T ΔS: calculated from ΔG = ΔH − TΔS; for ΔG: calculated from −RT ln Ka; for n (stoichiometry): single site-binding model
T1 construct: made in house; host or cells: Escherichia coli BL21(DE3)
Method: All the experiments were performed on MicroCal iTC200 (Malvern Instruments, Malvern, UK) at 25 °C. The freeze-dried lectin PA-IL was dissolved in 0.1 M Tris/HCl, 500 μM CaCl2, pH = 7.5, and equilibrated at room temperature for 1 h before ITC measurements. Multivalent galactosylated compounds 4, 7, 10 and 13 were diluted in the same buffer and used in 0.25–0.5 mM concentrations. Aliquots of 2 µL of the compounds were added automatically to the 0.078 mM or 0.088 mM PA-IL in the calorimeter cell. Blank experiments (injections of compounds to the buffer) were performed and heat responses were subtracted. Integrated heat effects were analyzed by global fitting of data obtained from three independent titrations for each tested compound by non-linear regression using a single site-binding model (Microcal Origin 7, Malvern Instruments, Malvern, UK). Fitted data yielded the association constant (Ka) and the enthalpy of binding (ΔH). Other thermodynamic parameters, i.e., changes in free energy (ΔG) and entropy (ΔS), were calculated from the following equation: ΔG = ΔH − TΔS = −RT ln Ka, where T is the absolute temperature and R = 8.314 J mol^−1 K^−1. The monosaccharide D-galactose was used as a control; 4 mM D-galactose was added to the 0.147 mM PA-IL in the calorimeter cell. Two titration experiments were performed and the heat responses were processed and evaluated as mentioned above.

[2] = target: T1, lectin PA-IL; assay: Hemagglutination inhibition assay (HIA) with microscope detection; type: biochemical; details: for Potency (MIC of standard/MIC of inhibitor) / β (Potency/Valency): HIA, standard D-galactose; for MIC (minimal inhibitory concentration): inhibition of hemagglutination caused by PA-IL (0.125 mg mL−1), papain-treated red blood cells B+
Method: PA-IL was dissolved in the buffer with calcium ions suitable for the activity of the lectin (20 mM Tris/HCl, 150 mM NaCl, 5 mM CaCl2, pH = 7.5) to the concentration 0.25 mg mL^−1. Lectin was mixed with carbohydrate inhibitors serially diluted in the buffer in a 5 µL:5 µL ratio. Therefore, the final (working) concentration of the lectin was 0.125 mg mL^−1. A total of 10 µL of 20% papain-treated, azid-stabilized red blood cells B^+ in the buffer was then added, and the mixture was thoroughly mixed and incubated for 5 min at room temperature. After incubation, the mixture was again mixed, transferred to a microscope slide, and examined. The examination was conducted using the Levenhuk D2L NG Digital Microscope (Levenhuk, Tampa, FL, USA). Images were obtained with a Levenhuk D2L digital camera (Levenhuk, Tampa, FL, USA) using the software ToupView for Windows (Version 3.7, Levenhuk, Tampa, FL, USA). The positive (experiment without inhibitor) and negative control (experiment without lectin) were prepared and processed in the same way using the appropriate volume of dissolving buffer instead of the omitted components. The minimal inhibitory concentration (MIC) of the inhibitor able to inhibit hemagglutination was determined and compared with the standard (D-galactose) and the potency of the inhibitor was calculated (MIC of the standard/MIC of the inhibitor).

[3] = test system: Pseudomonas aeruginosa CCM 3955 (ATCC 27853) cells; assay: Pseudomonas aeruginosa cross-linking assay with microscope detection; type: cell-based; details: for cross-linking of whole P. aeruginosa cells (cell aggregates): concentrations up to 5 mM, 10 min, microscope 100x
Method: Pseudomonas aeruginosa CCM 3955 (ATCC 27853) cells were inoculated from stock cells stored at −80 °C into a standard LB medium and were grown at 37 °C overnight under orbital shaking. The bacterial culture was kept in the fridge until further use. Prior to the experiment, bacterial cells were centrifuged at 4300× g (Eppendorf centrifuge MiniSpin, Eppendorf, Germany) for 2 min and subsequently washed three times with PBS buffer (137 mM NaCl, 2.7 mM KCl, 10 mM Na2HPO4, 1.8 mM KH2PO4). Bacterial cells were then diluted in PBS to an optical density OD600 = 1.5, which was checked using a spectrophotometer (WPA CO8000 Biovawe Cell Density Metr, Biochrom Ltd., Cambridge, UK). D-galactopyranoside-presenting inhibitors were diluted in ultrapure water to the concentration of 100 mM. Bacterial cells were mixed in a 9:1 ratio with the 10x concentrated selected compounds and gently mixed. The mixture was incubated at room temperature for 10 min and thoroughly mixed again. An amount of 5 µL of the mixture was transferred onto a microscope slide and observed under 100x magnification using an optical microscope (Olympus IX81F-3/IX81S1F-3, Olympus, Tokyo, Japan). As a negative control, bacterial culture mixed with ultrapure water in 9:1 ratio was used. The images were obtained using a phase contrast method and the background of the images was subtracted in GIMP.

T1 sequence (Q05097 2-122): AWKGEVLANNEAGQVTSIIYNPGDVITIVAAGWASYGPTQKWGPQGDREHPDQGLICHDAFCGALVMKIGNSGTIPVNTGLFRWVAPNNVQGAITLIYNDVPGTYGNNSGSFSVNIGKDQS

Row | Compound | ΔH [1] [kcal/mol] | Ka [1] | −T ΔS [1] [kcal/mol] | ΔG [1] [kcal/mol] | n (stoichiometry) [1] | Potency (MIC of standard/MIC of inhibitor) [2] | β (Potency/Valency) [2] | MIC (minimal inhibitory concentration) [2] [µM] | cross-linking of whole P. aeruginosa cells (cell aggregates) [3] | Kd [1] [nM] | concentration at which aggregates distinguishable from the negative control were still observed [3] [mM]
1 | COC(=O)c1cc(OCc2cn(CCOCCOCCOCCn3cc(CO[C@@H]4O[C@H](CO)[C@H](O)[C@H](O)[C@H]4O)nn3)nn2)c(OCc2cn(CCOCCOCCOCCn3cc(CO[C@@H]4O[C@H](CO)[C@H](O)[C@H](O)[C@H]4O)nn3)nn2)c(OCc2cn(CCOCCOCCOCCn3cc(CO[C@@H]4O[C@H](CO)[C@H](O)[C@H](O)[C@H]4O)nn3)nn2)c1 [Compound 4] | -19.3 ± 0.241 | 128 ± 15.1 10^4 M^−1 | 11 ± 1.43 | -8.32 ± 0.982 | 0.51 ± 0.01 | 128 | 42.7 | 48.83 (≈ 82.3 µg/mL) | Formation of aggregates was observed |  | 
2 | OC[C@H]1O[C@@H](OCc2cn(CCn3cc(COCC(COCc4cn(CCn5cc(CO[C@@H]6O[C@H](CO)[C@H](O)[C@H](O)[C@H]6O)nn5)nn4)(COCc4cn(CCn5cc(CO[C@@H]6O[C@H](CO)[C@H](O)[C@H](O)[C@H]6O)nn5)nn4)COCc4cn(CCn5cc(CO[C@@H]6O[C@H](CO)[C@H](O)[C@H](O)[C@H]6O)nn5)nn4)nn3)nn2)[C@H](O)[C@@H](O)[C@H]1O [Compound 13] | -32.03 ± 0.347 | 470 ± 54.5 10^4 M^−1 | 22.9 ± 2.904 | -9.11 ± 1.06 | 0.21 ± 0.01 | 128 | 32 | 48.83 (≈ 78.6 µg/mL) | no aggregates were observed; also recorded: no clearly distinguishable aggregates were detected |  | 
3 | COC(=O)c1cc(OCc2cn(CCn3cc(CO[C@@H]4O[C@H](CO)[C@H](O)[C@H](O)[C@H]4O)nn3)nn2)c(OCc2cn(CCn3cc(CO[C@@H]4O[C@H](CO)[C@H](O)[C@H](O)[C@H]4O)nn3)nn2)c(OCc2cn(CCn3cc(CO[C@@H]4O[C@H](CO)[C@H](O)[C@H](O)[C@H]4O)nn3)nn2)c1 [Compound 10] | -16.3 ± 0.179 |  | 7.98 ± 0.925 | -8.29 ± 0.87 | 0.53 ± 0.01 | 64 | 21.3 | 97.66 (≈ 126 µg/mL) | Formation of aggregates was observed | 820 | 
4 | OC[C@H]1O[C@@H](OCc2cn(CCOCCOCCOCCn3cc(COCC(COCc4cn(CCOCCOCCOCCn5cc(CO[C@@H]6O[C@H](CO)[C@H](O)[C@H](O)[C@H]6O)nn5)nn4)(COCc4cn(CCOCCOCCOCCn5cc(CO[C@@H]6O[C@H](CO)[C@H](O)[C@H](O)[C@H]6O)nn5)nn4)COCc4cn(CCOCCOCCOCCn5cc(CO[C@@H]6O[C@H](CO)[C@H](O)[C@H](O)[C@H]6O)nn5)nn4)nn3)nn2)[C@H](O)[C@@H](O)[C@H]1O [Compound 7] | -26.29 ± 0.196 | 281 ± 23.5 10^4 M^−1 | 17.4 ± 1.59 | -8.8 ± 0.739 | 0.32 ± 0.01 | 256 | 64 | 24.41 (≈ 52.2 µg/mL) | highest cross-linking activity; also recorded: Formation of aggregates was observed |  | 1.25
